Values quoted from earlier work as cited in patent publication US10675240B2 (priority 2014, dated 2020).

Conditions: background statement

CC1=CC[C@H]2C[C@@H]1C2(C)C [α-Pinene, (1S,5S)-2,6,6-Trimethylbicyclo[3.1.1]hept-2-ene]
human pulmonary uptake: 60%
